Measured values: US10464893B2, “Derivatives of pyrrole-2,5-diones having a fungicidal activity, their agronomical compositions and use thereof” (ISAGRO S.p.A., priority 2016, dated 2019)

Columns and labels:
Uromyces appendiculatus = assay: Preventive activity (7 days) against Uromyces appendiculatus on beans; type: in vivo; conditions: leaf spray on bean plants, inoculation 7 days after treatment, reduction of diseased leaf area vs non-treated (100=total effectiveness)
Procedure: Determination of the Preventive Activity (7 Days) of Compounds Having Formula (I) Against Uromyces appendiculatus on Beans
Leaves of bean plants, grown in pots, in a conditioned environment (20±1° C., 70% of R.H.), were treated by spraying both sides with the products under examination.
7 days after the treatment, the plants were inoculated with an aqueous suspension of spores of Uromyces appendiculatus (200,000 spores/cc) by spraying on both sides of the leaves with a compressed air gun.
(§1) After remaining 24 hours in a humidity saturated environment, at 21° C., the plants were transferred for the incubation period (7 days) to a conditioned environment at 70% R.H. and at 24° C.
(§2) After this period, the external symptoms of the pathogen appeared and it was consequently possible to proceed with a visual evaluation of the intensity of the infection.
(§3) The fungicidal activity is expressed as a reduction percentage, with respect to non-treated seedlings, in the area of the leaves affected by the disease (100=total effectiveness, 0=zero effectiveness).
Table 3 indicates the results obtained for the compounds tested, compared with the reference product Domark® (Tetraconazole).

Plasmopara viticola = assay: Preventive activity (7 days) against Plasmopara viticola on vines; type: in vivo; conditions: leaf spray on vine plants, inoculation 7 days after treatment, reduction of diseased leaf area vs non-treated (100=total effectiveness)
Procedure: Determination of the Preventive Activity (7 Days) of Compounds Having Formula (I) Against Plasmopara viticola on Vines
Leaves of vine plants, grown in pots, in a conditioned environment (20±1° C., 70% of R.H.), were treated by spraying both sides with the products under examination.
7 days after the treatment, the plants were inoculated with an aqueous suspension of spores of Plasmopara viticola (200,000 spores/cc) by spraying on both sides of the leaves with a compressed air gun.
as §1, §2, §3
Table 2 indicates the results obtained for the compounds tested, compared with the reference product Mancozeb (polymeric complex of manganese ethylenebisdithiocarbamate with zinc salt).

Row | Compound | Effectiveness (%) (Uromyces appendiculatus; dose 125 ppm) | Effectiveness (%) (Uromyces appendiculatus; dose 500 ppm) | Effectiveness (%) (Plasmopara viticola; dose 125 ppm) | Effectiveness (%) (Plasmopara viticola; dose 500 ppm)
1 | CS(=O)(=O)N1C(=O)C(c2ccccc2)=C(c2cccc3ccccc23)C1=O [Compound 3, 1-methanesulfonyl-3-phenyl-4-(1-naphthyl)-1H-pyrrol-2,5-dione] | 84 | 93 | 86 | 99
2 | CC(=O)ON1C(=O)C(c2ccccc2Br)=C(c2cccc3ccccc23)C1=O [Compound 11, 1-acetyloxy-3-(2-bromophenyl)-4-(1-naphthyl)-1H-pyrrole-2,5-dione] | 80 | 95 | 82 | 92
3 | CS(=O)(=O)ON1C(=O)C(c2ccccc2Br)=C(c2cccc3ccccc23)C1=O [Compound 12, 3-(2-bromophenyl)-1-(methane-sulfonyloxy)-4-(1-naphthyl)-1H-pyrrole-2,5-dione] | 83 | 98 | 91 | 93
4 | CCOC(=O)NN1C(=O)C(c2ccccc2Br)=C(c2cccc3ccccc23)C1=O [Compound 13, ethyl 3-(2-bromophenyl)-4-(1-naphthyl)-2,5-dione-1H-pyrrolylcarbamate] | 81 | 92 | 89 | 97
5 | polymeric complex of manganese ethylenebisdithiocarbamate with zinc salt [Mancozeb, reference compound] |  |  | 78 | 96
6 | t-butyl 3-phenyl-4-(1-naphthyl)-2,5-dione-1H-pyrrolylcarbamate [Compound 8] | 93 | 95 |  | 
